Test results reported in ChEMBL document CHEMBL1201862, “PubChem BioAssay data set” (2004).
Calls of active or inactive are those of the source.

Key:
[1] = cytotoxicity in OVCAR8 ovarian cancer cells, dose response, PAX8 project, cell-based, plate reader, dry powder samples (AID 743197); assay type: functional; conditions: OVCAR-8
Paired box protein Pax-8 = Paired box protein Pax-8 (Homo sapiens, UniProt Q06710); test: inhibitors of PAX8-driven TPO luciferase reporter, dose response, RMG-I cells, cherry-pick (AID 687027); assay type: functional, cell-based;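 note: luciferase reporter driven by Pax8 target thyroperoxidase promoter measured by SteadyGlo luminescence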
[2] = IGROV1 ovarian cancer cell cytotoxicity, dose response, PAX8 inhibitor project, plate reader, dry powder samples (AID 743043); assay type: functional, cell-based; conditions: IGROV-1
[3] = NIH:OVCAR-3 ovarian cancer cell cytotoxicity, dose response, PAX8 inhibitor project, plate reader, dry powder samples (AID 743044); assay type: functional, cell-based
[4] = molecular target: FAD-linked sulfhydryl oxidase ALR (Homo sapiens, UniProt P55789); test: inhibitors of human ALR sulfhydryl oxidase, dose response, biochemical, H2O2 detection, luminescence, cherry-pick (AID 493248)
[5] = molecular target: Dual specificity tyrosine-phosphorylation-regulated kinase 1A (Rattus norvegicus, UniProt Q63470); assay type: biochemical, Homo sapiens
cells = assay type: functional, cell-based; conditions: HEK-CNG
Galanin receptor type 3 = molecular target: T1, Galanin receptor type 3 (Homo sapiens, UniProt O60755); test: Fluorescence-based cell-based primary high throughput dose response assay to identify antagonists of the Galanin Receptor 3 (GalR3).; assay type: functional
T1 sequence (O60755 whole entry): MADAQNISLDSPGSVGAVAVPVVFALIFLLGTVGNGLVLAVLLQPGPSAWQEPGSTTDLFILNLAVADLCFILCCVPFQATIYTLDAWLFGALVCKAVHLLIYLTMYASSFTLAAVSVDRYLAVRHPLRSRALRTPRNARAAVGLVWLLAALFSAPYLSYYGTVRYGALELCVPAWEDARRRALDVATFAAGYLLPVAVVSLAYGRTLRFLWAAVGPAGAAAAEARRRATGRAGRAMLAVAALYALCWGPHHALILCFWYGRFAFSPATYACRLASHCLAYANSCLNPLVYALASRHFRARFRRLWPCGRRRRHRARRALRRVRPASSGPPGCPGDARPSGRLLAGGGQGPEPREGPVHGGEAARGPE

[6] = molecular target: T2, Short transient receptor potential channel 4 (Mus musculus, UniProt Q9QUQ5); test: mouse TRPC4 channel activators, dose response, cell-based, HEK293 TRPC4/mu-opioid, Fluo-4 calcium (AID 434937); assay type: functional
T2 sequence (Q9QUQ5 whole entry): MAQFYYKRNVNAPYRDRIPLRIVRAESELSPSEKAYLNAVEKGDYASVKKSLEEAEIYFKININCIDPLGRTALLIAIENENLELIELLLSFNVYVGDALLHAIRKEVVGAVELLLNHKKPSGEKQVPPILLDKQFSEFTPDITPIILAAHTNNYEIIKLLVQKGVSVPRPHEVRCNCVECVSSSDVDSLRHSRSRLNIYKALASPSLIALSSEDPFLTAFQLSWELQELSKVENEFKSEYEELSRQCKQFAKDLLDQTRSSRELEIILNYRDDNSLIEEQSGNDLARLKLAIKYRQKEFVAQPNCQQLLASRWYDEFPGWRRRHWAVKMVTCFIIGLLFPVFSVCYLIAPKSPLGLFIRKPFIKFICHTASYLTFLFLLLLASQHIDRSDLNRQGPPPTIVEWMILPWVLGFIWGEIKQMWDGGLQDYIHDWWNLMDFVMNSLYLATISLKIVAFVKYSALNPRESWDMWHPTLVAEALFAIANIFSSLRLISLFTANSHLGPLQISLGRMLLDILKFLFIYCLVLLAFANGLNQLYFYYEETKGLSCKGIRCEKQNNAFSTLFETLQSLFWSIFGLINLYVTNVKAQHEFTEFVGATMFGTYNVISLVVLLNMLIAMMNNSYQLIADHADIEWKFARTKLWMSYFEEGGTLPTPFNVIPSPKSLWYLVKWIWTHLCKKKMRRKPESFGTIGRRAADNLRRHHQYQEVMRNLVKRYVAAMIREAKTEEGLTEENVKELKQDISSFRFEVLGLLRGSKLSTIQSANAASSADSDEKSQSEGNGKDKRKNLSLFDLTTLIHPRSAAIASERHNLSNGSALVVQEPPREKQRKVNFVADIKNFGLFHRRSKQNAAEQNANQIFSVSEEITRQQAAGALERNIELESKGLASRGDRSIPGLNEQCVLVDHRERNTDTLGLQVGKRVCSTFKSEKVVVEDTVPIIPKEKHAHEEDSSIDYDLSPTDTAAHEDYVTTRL

[7] = molecular target: T3, Small ubiquitin-related modifier 1 (Homo sapiens, UniProt P63165); test: inhibitors of SUMO1 peptide binding, dose response, biochemical, fluorescence polarization, uHTS hits (AID 624382); assay type: functional; conditions: read-out: IC50_Mean
[8] = molecular target: T3, Small ubiquitin-related modifier 1; test: inhibitors of SUMO1 partner interactions, dose response, biochemical, FRET (AID 624383); assay type: functional; conditions: read-out: IC50_Mean
Melanocortin receptor 4 = Melanocortin receptor 4 (Homo sapiens, UniProt P32245); assay type: functional, cell-based;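 note: Cell-based assay with luminescence read-out, confirmatory dose-response testing for agonist activity of biased ligands at MC4R; human U2OS cells with tagged receptor and beta-arrestin; potency of agonists that increase receptor coupling to beta-arrestin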
[9] = molecular target: T4, Tyrosine-protein phosphatase non-receptor type 11 (Homo sapiens, UniProt Q06124); test: SHP2 phosphatase inhibition, dose response, selectivity assay for STEP inhibitor project, biochemical (AID 602367); assay type: functional; conditions: read-out: IC50_Mean
T4 sequence (Q06124 whole entry): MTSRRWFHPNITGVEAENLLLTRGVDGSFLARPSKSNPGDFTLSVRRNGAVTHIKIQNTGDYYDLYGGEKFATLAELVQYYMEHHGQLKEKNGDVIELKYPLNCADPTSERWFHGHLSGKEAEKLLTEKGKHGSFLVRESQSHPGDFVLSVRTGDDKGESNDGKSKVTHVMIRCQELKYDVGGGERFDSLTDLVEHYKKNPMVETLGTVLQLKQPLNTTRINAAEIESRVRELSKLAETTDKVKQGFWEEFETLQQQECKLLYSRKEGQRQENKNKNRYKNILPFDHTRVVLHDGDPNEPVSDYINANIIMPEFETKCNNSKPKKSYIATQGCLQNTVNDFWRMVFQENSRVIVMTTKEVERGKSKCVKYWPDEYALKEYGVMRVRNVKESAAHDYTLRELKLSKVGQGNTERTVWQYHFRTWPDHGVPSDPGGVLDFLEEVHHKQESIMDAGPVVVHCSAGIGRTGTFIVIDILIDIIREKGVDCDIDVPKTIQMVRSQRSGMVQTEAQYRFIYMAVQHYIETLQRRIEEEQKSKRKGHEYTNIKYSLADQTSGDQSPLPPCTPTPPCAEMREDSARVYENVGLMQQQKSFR

[10] = molecular target: T5, Tyrosine-protein phosphatase non-receptor type 5 (Homo sapiens, UniProt P54829); test: STEP phosphatase inhibitors, confirmation, biochemical, fluorescence intensity, uHTS hits (AID 602372); assay type: functional; conditions: read-out: IC50_Mean
T5 sequence (P54829 whole entry): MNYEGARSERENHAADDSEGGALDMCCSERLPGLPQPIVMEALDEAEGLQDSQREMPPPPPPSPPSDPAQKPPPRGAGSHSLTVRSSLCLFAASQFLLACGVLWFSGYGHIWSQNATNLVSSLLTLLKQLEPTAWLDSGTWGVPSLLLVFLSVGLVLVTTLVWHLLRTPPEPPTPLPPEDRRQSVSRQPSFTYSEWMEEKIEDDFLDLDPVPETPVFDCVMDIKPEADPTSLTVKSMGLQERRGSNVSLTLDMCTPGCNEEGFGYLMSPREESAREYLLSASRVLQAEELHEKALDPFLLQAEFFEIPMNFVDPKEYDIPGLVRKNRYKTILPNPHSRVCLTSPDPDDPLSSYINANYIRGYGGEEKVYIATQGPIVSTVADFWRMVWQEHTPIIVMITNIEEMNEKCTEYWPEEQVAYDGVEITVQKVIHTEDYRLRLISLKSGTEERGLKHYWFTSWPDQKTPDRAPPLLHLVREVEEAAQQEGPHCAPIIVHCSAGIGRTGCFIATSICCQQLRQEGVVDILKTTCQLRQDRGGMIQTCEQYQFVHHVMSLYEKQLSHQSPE

[11] = molecular target: Dual specificity protein phosphatase 3 (Homo sapiens, UniProt P51452); test: VHR phosphatase inhibition, dose response, selectivity assay for STEP inhibitor project, biochemical (AID 602374); assay type: functional; conditions: read-out: IC50_Mean
[12] = Luminescence Cell-Based Dose Response HTS to Identify Activators of Luciferase Translation or Activity in H4 […] Cells. [Related pubchem assays: 1829 (Project Summary), 1814 (Primary HTS)]; assay type: functional
H4 = test: Luminescence Cell-Based Dose Response HTS to Identify Activators of 5'UTR Stem-Loop Driven Prion Protein mRNA Translation in H4 Neuroglioblastoma Cells. [Related pubchem assays: 1829 (Project Summary), 1814 (Primary HTS)]; assay type: functional; conditions: Homo sapiens
Beta-galactosidase = Beta-galactosidase (Escherichia coli, UniProt Q8VNN2); test: PubChem AID 485352; assay type: functional
[13] = molecular target: T6, Type-1 angiotensin II receptor (Homo sapiens, UniProt P30556); test: AT1 receptor antagonists, dose response, selectivity assay for APJ receptor antagonist project, cell-based, uHTS hits (AID 463214); assay type: functional;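 note: antagonist potency against angiotensin II stimulated AT1 response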
T6 sequence (P30556 whole entry): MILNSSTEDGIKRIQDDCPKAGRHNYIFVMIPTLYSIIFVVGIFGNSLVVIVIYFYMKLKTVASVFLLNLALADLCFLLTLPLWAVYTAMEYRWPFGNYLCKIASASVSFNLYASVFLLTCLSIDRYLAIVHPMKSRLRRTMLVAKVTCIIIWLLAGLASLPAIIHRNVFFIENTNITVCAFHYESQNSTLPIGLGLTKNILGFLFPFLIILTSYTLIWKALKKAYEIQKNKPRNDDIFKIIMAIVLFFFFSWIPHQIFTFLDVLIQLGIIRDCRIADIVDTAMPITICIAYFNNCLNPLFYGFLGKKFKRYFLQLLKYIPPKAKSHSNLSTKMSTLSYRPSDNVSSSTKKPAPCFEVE

H9c2 = test: cells; assay type: functional, cell-based; conditions: Rattus norvegicus, H9c2, Myocardium;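 note: confirmatory concentration-response retest of ultra-high-throughput screening hits for modulation of myocardial damage; cell death induced by hydrogen peroxide oxidative stress; compound pretreatment for 60 min then peroxide exposure for 2 h; potency is for protecting the cells against peroxide damage rather than for killing them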
[14] = molecular target: Glucose-6-phosphate 1-dehydrogenase (Homo sapiens, UniProt P11413); test: human G6PD enzyme inhibitors, dose response, selectivity assay for P. falciparum G6PD inhibitor project, biochemical, fluorescence (AID 504792); assay type: functional
Glucose-6-phosphate 1-dehydrogenase, sequence (P11413 whole entry): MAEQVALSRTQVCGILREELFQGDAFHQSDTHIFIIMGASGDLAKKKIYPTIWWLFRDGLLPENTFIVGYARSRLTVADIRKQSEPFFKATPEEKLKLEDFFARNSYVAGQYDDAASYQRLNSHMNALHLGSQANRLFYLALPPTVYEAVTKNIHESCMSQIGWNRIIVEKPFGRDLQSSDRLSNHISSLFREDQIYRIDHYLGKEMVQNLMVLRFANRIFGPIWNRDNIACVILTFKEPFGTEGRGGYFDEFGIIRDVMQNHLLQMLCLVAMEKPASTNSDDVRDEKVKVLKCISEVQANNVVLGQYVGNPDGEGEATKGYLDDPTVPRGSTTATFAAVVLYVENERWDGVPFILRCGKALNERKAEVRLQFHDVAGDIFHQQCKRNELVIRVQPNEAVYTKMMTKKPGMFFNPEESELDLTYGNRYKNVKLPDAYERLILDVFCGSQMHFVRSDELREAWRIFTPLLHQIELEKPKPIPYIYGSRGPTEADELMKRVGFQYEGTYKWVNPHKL

Beta-galactosidase, sequence (Q8VNN2 whole entry): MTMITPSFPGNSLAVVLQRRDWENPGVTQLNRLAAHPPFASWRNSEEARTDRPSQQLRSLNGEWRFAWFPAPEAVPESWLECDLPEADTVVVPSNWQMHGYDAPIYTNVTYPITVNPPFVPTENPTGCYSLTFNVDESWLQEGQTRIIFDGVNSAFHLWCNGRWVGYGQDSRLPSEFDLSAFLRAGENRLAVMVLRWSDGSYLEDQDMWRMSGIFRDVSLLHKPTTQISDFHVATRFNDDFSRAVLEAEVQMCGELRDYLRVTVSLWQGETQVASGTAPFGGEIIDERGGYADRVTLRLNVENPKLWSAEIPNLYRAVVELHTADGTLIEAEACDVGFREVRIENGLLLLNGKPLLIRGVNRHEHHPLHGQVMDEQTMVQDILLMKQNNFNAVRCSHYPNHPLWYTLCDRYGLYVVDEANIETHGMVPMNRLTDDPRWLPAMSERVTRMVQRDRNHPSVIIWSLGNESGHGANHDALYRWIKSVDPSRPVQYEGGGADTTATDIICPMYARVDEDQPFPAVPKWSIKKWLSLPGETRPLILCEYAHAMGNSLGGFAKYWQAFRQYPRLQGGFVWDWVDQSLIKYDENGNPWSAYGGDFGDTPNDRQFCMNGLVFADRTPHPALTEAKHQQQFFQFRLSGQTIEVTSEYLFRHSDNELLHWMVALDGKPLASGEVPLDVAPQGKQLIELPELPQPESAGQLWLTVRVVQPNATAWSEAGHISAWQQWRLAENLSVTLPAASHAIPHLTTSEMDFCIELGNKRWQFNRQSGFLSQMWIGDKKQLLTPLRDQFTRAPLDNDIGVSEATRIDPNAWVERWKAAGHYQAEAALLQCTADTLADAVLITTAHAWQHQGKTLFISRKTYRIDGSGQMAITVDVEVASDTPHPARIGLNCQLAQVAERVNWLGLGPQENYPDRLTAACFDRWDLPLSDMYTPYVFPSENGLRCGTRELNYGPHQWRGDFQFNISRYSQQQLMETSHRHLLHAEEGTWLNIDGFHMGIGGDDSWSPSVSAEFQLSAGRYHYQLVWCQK
T3 sequence (P63165 whole entry): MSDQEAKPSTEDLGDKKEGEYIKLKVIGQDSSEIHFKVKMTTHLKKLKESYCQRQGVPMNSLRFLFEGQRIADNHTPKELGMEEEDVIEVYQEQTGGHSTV
Melanocortin receptor 4, sequence (P32245 whole entry): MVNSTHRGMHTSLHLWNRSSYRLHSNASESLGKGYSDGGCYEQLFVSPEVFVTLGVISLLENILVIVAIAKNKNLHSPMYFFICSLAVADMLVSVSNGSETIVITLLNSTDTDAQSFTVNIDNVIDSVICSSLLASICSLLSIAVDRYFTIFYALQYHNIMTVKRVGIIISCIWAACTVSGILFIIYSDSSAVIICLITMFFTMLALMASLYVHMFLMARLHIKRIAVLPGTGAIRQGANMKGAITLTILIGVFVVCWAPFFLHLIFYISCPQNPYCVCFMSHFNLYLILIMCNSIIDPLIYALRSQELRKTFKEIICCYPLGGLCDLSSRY
Paired box protein Pax-8, sequence (Q06710 whole entry): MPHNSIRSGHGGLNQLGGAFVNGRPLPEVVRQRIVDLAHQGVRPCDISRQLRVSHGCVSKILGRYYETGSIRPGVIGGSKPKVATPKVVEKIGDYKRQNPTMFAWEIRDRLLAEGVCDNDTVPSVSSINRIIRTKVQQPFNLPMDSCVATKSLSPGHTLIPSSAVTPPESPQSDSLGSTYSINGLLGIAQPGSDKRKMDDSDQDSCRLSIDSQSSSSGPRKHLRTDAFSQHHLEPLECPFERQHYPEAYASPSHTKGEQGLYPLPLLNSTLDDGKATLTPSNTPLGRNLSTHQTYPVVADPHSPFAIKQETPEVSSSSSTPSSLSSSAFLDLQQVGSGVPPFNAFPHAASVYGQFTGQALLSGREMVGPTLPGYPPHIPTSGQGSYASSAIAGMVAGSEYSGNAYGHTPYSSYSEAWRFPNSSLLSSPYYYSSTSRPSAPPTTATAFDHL
FAD-linked sulfhydryl oxidase ALR, sequence (P55789 whole entry): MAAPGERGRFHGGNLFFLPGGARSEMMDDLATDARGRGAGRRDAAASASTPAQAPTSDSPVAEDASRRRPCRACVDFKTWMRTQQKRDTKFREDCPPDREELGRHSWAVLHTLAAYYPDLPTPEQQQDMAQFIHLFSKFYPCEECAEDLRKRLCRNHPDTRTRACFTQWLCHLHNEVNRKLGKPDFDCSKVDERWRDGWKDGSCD
Dual specificity protein phosphatase 3, sequence (P51452 whole entry): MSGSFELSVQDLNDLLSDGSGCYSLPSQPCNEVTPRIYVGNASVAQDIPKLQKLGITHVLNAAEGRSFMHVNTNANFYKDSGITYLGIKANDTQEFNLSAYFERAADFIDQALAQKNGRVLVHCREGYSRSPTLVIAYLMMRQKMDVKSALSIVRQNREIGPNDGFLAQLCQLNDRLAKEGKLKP

With `C[C@@H]1CCCCO[C@@H](CN(C)Cc2ccc(C(F)(F)F)cc2)[C@@H](C)CN([C@@H](C)CO)C(=O)c2cc(NS(=O)(=O)c3ccc(Cl)cc3)ccc2O1` the AC50 [1] was 43.7 µM (active), the AC50 (Paired box protein Pax-8) was 7.31 µM (active) and the AC50 [2] was 53.5 µM (active). The AC50 [3] was 27.4 µM (active).
For `CN(C)/C=N/c1nc(-c2ccc3c(c2)OCO3)cs1`, the AC50 [4] was 10.9 µM (active) and the AC50 [5] was 3.64 µM (active).
For `Cc1cc(NC(=O)Cc2ccccc2)c2ccccc2n1`, the EC50 (cells) was > 29.9 µM (inactive) and the IC50 (Galanin receptor type 3) was 1.3 µM (active).
With `Cc1ccc(Cl)cc1N1CCN(CCN)CC1` the EC50 [6] was 0.211 µM (active).
With `O=C(O)C1=CCC=CC1C(=O)O` (stereo not drawn) the IC50 [7] was > 66.6 µM (inactive) and the IC50 [8] was 5.69 µM (active).
In the case of `CCc1ccc(C2CC(c3ccc(F)cc3)Nc3nc(N)nn32)cc1` (stereo not drawn), the EC50 (Melanocortin receptor 4) is reported as 48.1 µM (inactive).
In the case of `CCOC(=O)N1CCC(N(CCN(C)C)C(=S)Nc2cc(Cl)ccc2C)CC1`, the IC50 [9] is reported as 11.8 µM (active), the IC50 [10] is reported as 32.2 µM (inactive) and the IC50 [11] is reported as 2.14 µM (active).
In the case of `Cc1ccc(S(=O)(=O)N2CC[C@@H]3[C@H](CO)N(C)c4ccc(-c5ccc(C#N)cc5)cc4[C@@H]32)cc1`, the AC50 [1] is reported as 48.4 µM (active), the AC50 (Paired box protein Pax-8) is reported as 7.55 µM (active) and the AC50 [2] is reported as 28.6 µM (active).
With `Cc1ccc(S(=O)(=O)N2[C@@H](c3ccc(C(C)(C)C)cc3)C(C(=O)O)=CC[C@H]2c2ccc(Cl)c(Cl)c2)cc1` the IC50 [7] was > 66.6 µM (inactive) and the IC50 [8] was 18.8 µM (active).
In the case of `COc1ccc2c(Cl)c(C(=O)NCc3ccco3)sc2c1`, the AC50 [5] is reported as 0.273 µM (active).
For `CCCCN(CC)CCCNC(=O)Cn1nc(Cc2cccnc2)c2ccccc2c1=O`, the EC50 [6] was 1.88 µM (active).
For `O=C(Nc1nc2ccc([N+](=O)[O-])cc2s1)C1CCCO1` (stereo not drawn), the EC50 [12] was 0.224 µM (active), the AC50 [5] was 0.577 µM (active) and the EC50 (H4) was > 120 µM (not active).
For `COc1ccccc1CC(=O)N1CCN(CCc2ccccc2)CC1`, the EC50 [6] was 4.22 µM (active).
With `COc1ccc(C2NCCc3[nH]cnc32)cc1` (stereo not drawn) the EC50 [6] was 3.35 µM (active).
For `COc1cccc(NC(=S)N/N=C2\CC3CCC2(C)C3(C)C)c1` (stereo not drawn), the EC50 (Beta-galactosidase) was > 40 µM (inactive) and the IC50 [13] was 27.4 µM (not active).
With `CCc1ccc(C(=O)NNc2ccc(C)c(Cl)c2)cc1` the EC50 (Beta-galactosidase) was > 40 µM (inactive) and the IC50 [13] was 2.55 µM (active).
In the case of `CC(=O)Nc1cc(-c2ccc(S(C)(=O)=O)cc2)cn2c(-c3ccc(F)c(Cl)c3)cnc12`, the EC50 (Melanocortin receptor 4) is reported as > 89.2 µM (inactive).
In the case of `CC(=O)Nc1cc(-c2ccccc2)cn2c(-c3cccc(C(C)=O)c3)cnc12`, the IC50 (H9c2) is reported as > 79 µM (inactive) and the EC50 (Melanocortin receptor 4) is reported as > 89.2 µM (inactive).
For `COc1ccc(CSCCN)cc1Cl`, the EC50 [6] was 5.96 µM (active).
With `CCOC(=O)c1c(C2COc3ccccc3O2)csc1NC(=O)c1ccco1` (stereo not drawn) the EC50 (Beta-galactosidase) was > 40 µM (inactive), the IC50 [14] was > 80 µM (inactive) and the IC50 [13] was > 40 µM (not active).
